{"source": "patent US20180244653A1", "about": "“SELECTIVE ALPHA-7 NICOTINIC RECEPTOR AGONISTS AND METHODS FOR MAKING AND USING THEM” (THE REGENTS OF THE UNIVERSITY OF CALIFORNIA, priority 2015, published 2018)", "key": {"[1]": {"test_system": "physiologically induced amnesia mice", "assay": "ORT with 24 h time delay (natural memory loss)", "format": "in vivo", "conditions": "24 h delay; i.p.", "description": "Both compounds were further evaluated on a physiologic amnesic model by using ORT with 24 h time delay to induce natural memory loss in mice. The appropriate time delay causing amnesia was initially selected by varying delay times (24, 48, and 72 h) between sample and test phase that have identical and different objects, respectively. […] Therefore, 24 h was used as the time delay between sample and test phase.\nFIG. 27 illustrates exploration time to familiar (F) and novel (N) objects in test phase of ORT following a time delay. Each mouse was allowed to explore an open field apparatus for 5 min in a habituation phase one day before a sample phase. In the test day, vehicle (SH) and test compounds IND8, QND8 and PNU were injected 1 h before measurement of exploration time. Each mouse was allowed to explore 2 identical objects in the sample phase for 5 min. On the next day (24 h), one of the objects was changed to a new one and the mouse was allowed to explore these objects for 5 min. The exploration time of these objects was recorded. Data are presented as means±SE, n=6-8 mice/group. **p<0.01, ***p<0.001 vs exploration time of familiar object, paired student's t-test.\nThe DI was calculated and compared with the control group to evaluate IND8, QND8, and PNU-282987 enhancement of cognitive function. Data are shown in FIG. 28, which illustrates discrimination index (TN−TF/TN+TF) of each compound in the test phase of ORT with time delay protocol. There was a significant difference in DI (F6,43=6.097, p<0.001, n=6-8 mice/group). **p<0.01, ***p<0.001 vs vehicle group (SH), one-way ANOVA with Fisher's LSD post hoc comparison.\nThe apparatus used in this experiment was the same as ORT test. This experiment was divided into 2 parts directed to dose finding and establishing mechanism of action.\nFor dose finding protocol, the mice were randomly divided into different treatment groups, a control group receiving a vehicle and tested groups receiving PNU-282987 at 3, 10 mg/kg, and IND8, QND8 for 10, 25 μmol/kg, single dose. They were allowed to freely explore the open field apparatus for 5 min for habituation in a day before the experiment (day 1). On the test day (day 2), the test compound was injected 1 h before the sample phase. In this phase, mice were placed in the apparatus to explore two identical objects. On the next day (day 3), one object was changed to a new one and mice were allowed to explore these objects for 5 min in the test phase. For proving cognitive enhancement mediated through α7-nAChRs, the protocol was the same as mentioned above except MLA (3 mg/kg), selective α7-nAChR antagonist, was injected 5 min before test compounds in the sample phase (day 2) to block the cognitive enhancement effect from test compounds. The dose of test compounds is selected from the effective dose from the former experiment. The exploration time of each object was recorded if the nose of mouse came within 3 cm or touched the objects. The discrimination index (DI) was calculated by using (TN−TF)/(TN+TF); TN and TF represented exploration time of new and familiar objects, respectively."}, "α4β2-nAChRs [2]": {"biological_target": "T1, α4β2-nAChRs (Homo sapiens, UniProt P17787+P43681)", "T1 construct": "expressed in transfected cells; host or cells: HEKtsA201 cells co-expressing TN-XXL", "assay": "Intact cell competitive radioligand binding assay ([3H]-(±)-epibatidine, SPA), LGIC-CNiFERs", "conditions": "10 μM, more than 50% radioligand displacement"}, "5HT3A receptors [3]": {"biological_target": "T2, 5HT3A receptors (Mus musculus, UniProt P23979)", "T2 construct": "expressed in transfected cells; host or cells: HEK293 cells co-expressing TN-XXL", "T2 sequence (P23979 24-489)": "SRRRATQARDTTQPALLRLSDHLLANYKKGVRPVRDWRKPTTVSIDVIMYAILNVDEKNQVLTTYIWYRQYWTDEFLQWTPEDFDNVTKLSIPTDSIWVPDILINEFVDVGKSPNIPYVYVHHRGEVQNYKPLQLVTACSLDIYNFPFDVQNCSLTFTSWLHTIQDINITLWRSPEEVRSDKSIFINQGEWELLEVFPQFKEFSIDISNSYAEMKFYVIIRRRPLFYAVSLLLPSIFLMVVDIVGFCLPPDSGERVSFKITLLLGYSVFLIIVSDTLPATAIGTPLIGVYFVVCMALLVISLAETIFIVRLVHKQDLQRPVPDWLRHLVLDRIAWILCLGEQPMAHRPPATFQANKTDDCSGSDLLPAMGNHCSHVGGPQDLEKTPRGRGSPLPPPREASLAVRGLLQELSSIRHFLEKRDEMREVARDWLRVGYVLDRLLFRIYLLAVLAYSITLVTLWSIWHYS", "assay": "Intact cell competitive radioligand binding assay ([3H]-granisetron, SPA), LGIC-CNiFERs", "conditions": "10 μM, more than 50% radioligand displacement"}, "5HT3A receptors [4]": {"biological_target": "T2, 5HT3A receptors", "assay": "FRET functional assay (agonist/antagonist) using LGIC-CNiFERs", "format": "cell-based", "conditions": "for EC50: read-out: Agonist EC50 ± SD, 5HT3A", "description": "(§1) Initially, the agonist properties of tested compounds were assessed directly. […] All α7-nAChR functional assays were performed in the presence of PNU-120596, an α7-nAChR positive allosteric modulator (PAM), to increase signal and delay the sensitization state of α7-nAChRs enabling the measurement of more prolonged FRET signals.^29 Compounds having agonist responses of >0.20 were determined for EC50, and compounds having inhibition fraction of >0.50 were determined for KA.^25 EC50>13.3 μM and KA>10 μM which are a screening concentration for agonist and antagonist, respectively were reported compounds not taken for further in the screening of receptor occupation and responses.\n(§2) Agonist and antagonist elicited responses were characterized using the above CNiFER cell expressing Cys-loop ligand-gated ion channel (LGIC) receptors. […] A 96-well black, clear-bottom microplate (Greiner bio-one, Germany) was coated with poly-D-lysine (Sigma-Aldrich, St. Louis, Mo.) 50 μL/well for 30 min and washed out with Phosphate-Buffered Saline (PBS) (Corning, Cellgro, Manassas, Va.) before plating the cells. After plating and incubation at 37° C. for 1 day, the media was replaced with 100 μL of artificial cerebrospinal fluid (aCSF: 121 mM NaCl, 5 mM KCl, 26 mM NaHCO3, 1.2 mM NaH2PO4H2O, 10 mM glucose, 2.4 mM CaCl2, 1.3 mM MgSO4, 5 mM HEPES, pH 7.4) for 4032 and 5HT3A receptors, whereas 10 μM PNU-120596 (Tocris Bioscience, Bristol, UK) in aCSF with 30 min incubation at 37° C. was used for α7-nAChR. The tested compounds were prepared in aCSF for all receptors except α7-nAChR, where 10 μM PNU-120596, a positive allosteric modulator (PAM) was used. The prepared compounds were added in a separate 96-well polypropylene plate (Costar, Corning, N.Y.). Experiments were conducted at 37° C. using 436-nm excitation. Emitted light was collected at 485 nm and 528 nm. Basal fluorescence was recorded for 30 s, followed by addition of 50 μL of ligand (first addition). Measurements were made at 3.84 s intervals for 2 min to measure the agonistic effect. […] Agonist and antagonist properties were sequentially screened at the final concentration of 13.3 and 10 μM, respectively, which differed from the screening concentration from intact cell binding assay (10 μM)."}, "α4β2-nAChRs [5]": {"biological_target": "T1, α4β2-nAChRs", "assay": "FRET functional assay (agonist/antagonist) using LGIC-CNiFERs", "format": "cell-based", "conditions": "for Functional properties at α4β2-nAChRs (agonist / antagonist, type): functional screening and characterization", "description": "as §1, §2"}, "α7-nAChRs": {"biological_target": "T3, α7-nAChRs (Homo sapiens, UniProt P36544)", "T3 construct": "expressed in transfected cells; host or cells: HEKtsA201 cells co-expressing TN-XXL", "assay": "FRET functional assay (agonist/antagonist) using LGIC-CNiFERs", "format": "cell-based", "conditions": "for EC50: in presence of 10 μM PNU-120596, * partial agonist, >10 = did not pass initial screen, read-out: Agonist EC50 ± SD, α7", "description": "as §1, §2"}, "[6]": {"biological_target": "α7/5HT3A chimera receptor (hα7/m5HT3A), used for α7-nAChRs (UniProt P23979+P36544, M226I/T225I)", "assay": "Intact cell competitive radioligand binding assay ([3H]-(±)-epibatidine, SPA), LGIC-CNiFERs"}, "[7]": {"conditions": "functional screening and characterization"}}, "note": "Entries after “also recorded” stand apart in the source; their conditions may differ. Read-outs that look alike come from different tables or passages of the source."}
{"smiles": "CCN1C[C@]2(COC(=O)c3ccccc3N3C(=O)C[C@H](C)C3=O)CC[C@H](OC)[C@@]34[C@@H]5C[C@H]6[C@H](OC)[C@@H]5[C@](O)(C[C@@H]6OC)[C@@](O)([C@@H](OC)[C@H]23)[C@@H]14", "note": "[MLA, methyllycaconitine, reference compound]", "values": [{"measurement": "Discrimination index / cognition enhancement, ORT time delay vs control group", "setting": "[1]", "result": "does not enhance episodic memory; also recorded: did not have cognitive enhancement effect"}]}
{"smiles": "c1ccc(-c2ccc(-c3cn(CCN4CCCCC4)nn3)cc2)cc1", "note": "[PPRD7, 1-(2-(4-(Biphenyl-4-yl)-1,2,3-triazol-1-yl)ethyl)piperidine]", "values": [{"measurement": "Initial screening for binding to α4β2-nAChRs", "setting": "α4β2-nAChRs [2]", "result": "cannot bind to all tested LGIC receptors"}, {"measurement": "Initial screening for binding to 5HT3A receptors", "setting": "5HT3A receptors [3]", "result": "cannot bind to all tested LGIC receptors"}, {"measurement": "Kd", "setting": "5HT3A receptors [4]; competitive antagonist (^C), >10 = did not pass initial screen, vs 5-HT, read-out: Antagonist KA ± SD, 5HT3A", "result": "> 10", "unit": "µM"}, {"measurement": "Functional properties at 5HT3A receptors (agonist / antagonist, type)", "setting": "5HT3A receptors [4]; [7]", "result": "did not pass the functional screening"}, {"measurement": "EC50", "setting": "5HT3A receptors [4]", "result": "> 10", "unit": "µM"}, {"measurement": "Functional properties at α4β2-nAChRs (agonist / antagonist, type)", "setting": "α4β2-nAChRs [5]", "result": "did not pass the functional screening"}, {"measurement": "Kd", "setting": "α4β2-nAChRs [5]; read-out: Antagonist KA ± SD, α4β2", "result": "> 10", "unit": "µM"}, {"measurement": "Functional properties at α7-nAChRs (agonist / antagonist)", "setting": "α7-nAChRs; [7]", "result": "did not pass the functional screening"}, {"measurement": "EC50", "setting": "α7-nAChRs", "result": "> 10", "unit": "µM"}, {"measurement": "Initial screening for binding to α7-nAChRs", "setting": "[6]; 10 μM, more than 50% radioligand displacement", "result": "cannot bind to all tested LGIC receptors"}]}
{"smiles": "Cn1ccc2cc(-c3cn(C4CN5CCC4CC5)nn3)ccc21", "note": "(stereo not shown) [QND9, 3-(4-(1-Methyl-indol-5-yl)-1,2,3-triazol-1-yl)quinuclidine]", "values": [{"measurement": "Initial screening for binding to α4β2-nAChRs", "setting": "α4β2-nAChRs [2]", "result": "associate well with α4β2-nAChRs"}, {"measurement": "EC50", "setting": "5HT3A receptors [4]", "result": "1.38 ± 0.52", "unit": "µM"}, {"measurement": "Kd", "setting": "α4β2-nAChRs [5]; Antagonist KA ± SD, α4β2, competitive antagonist (^C), >10 = did not pass initial screen, vs (±)-epibatidine", "result": "5.2 ± 1.2", "unit": "µM"}, {"measurement": "Functional properties at α4β2-nAChRs (agonist / antagonist, type)", "setting": "α4β2-nAChRs [5]", "result": "mix-competitive antagonist"}, {"measurement": "Kd", "setting": "α4β2-nAChRs [5]; read-out: Antagonist KA ± SD, α4β2, non-competitive", "result": "6.5 ± 0.2", "unit": "µM"}, {"measurement": "EC50", "setting": "α7-nAChRs", "result": "1 ± 0.04", "unit": "µM"}, {"measurement": "Fold increase of Kd (α7-nAChRs) compared to IND8", "setting": "[6]", "result": 15, "unit": "fold"}, {"measurement": "Kd", "setting": "[6]; read-out: Kd ± SD, α7-nAChRs, >10 = did not pass initial screen at 10 μM", "result": 1.88, "unit": "µM"}]}
